Results on two compounds are retold here after patent US9127044B2, “Cyclic depsipeptides” (NOVARTIS AG, priority 2007, dated 2015).

Like-named read-outs stand apart in the source and are kept apart here.

Experiment [1] deals with human kallikrein 7 (Homo sapiens, UniProt P49862). The experiment in a line: Kallikrein-7 inhibitory activity in vitro (fluorescence-quenched substrate). Type of experiment: biochemical.
Experiment [2] has as its target T1, Human neutrophil elastase (Homo sapiens, UniProt P08246).
T1 construct: purchased Elastin Products Company, Inc. (EPC, Owensville, USA) SE563
T1 sequence (P08246 30-267): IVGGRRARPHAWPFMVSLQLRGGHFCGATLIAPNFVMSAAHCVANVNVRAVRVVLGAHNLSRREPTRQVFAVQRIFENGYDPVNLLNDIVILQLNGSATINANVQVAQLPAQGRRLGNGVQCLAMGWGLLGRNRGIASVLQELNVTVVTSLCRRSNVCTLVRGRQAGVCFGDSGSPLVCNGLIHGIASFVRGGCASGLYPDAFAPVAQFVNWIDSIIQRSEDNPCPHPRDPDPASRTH
The experiment in a line: HNE inhibitory activity in vitro (fluorescence-quenched substrate). It is filed as biochemical.

Experiment [3] has as its system Crl:NMRI mice. The experiment in a line: Anti-inflammatory activity in murine model of allergic contact dermatitis (ACD), oxazolone. Type of experiment: in vivo. Here is the method: Method: Crl:NMRI mice were sensitized on the shaved abdomen with 50 μl of 2% oxazolone on day 1 and challenged with 10 μl oxazolone on the inner surface of the right ear on day 8. The unchallenged left ears served as normal controls and dermatitis was evaluated from the difference in auricular weight (taken as a measure of inflammatory swelling) on day 9. The animals were treated topically with 10 μl test compound or the solvent only 30 min after the challenge. The efficacy of the treatment was calculated as the percentage inhibition of inflammatory auricular swelling relative to animals treated with the vehicle alone.

Experiment [4] relates to human chymotrypsin. Briefly: Inhibition of human chymotrypsin. Type of experiment: biochemical.

Sequence of human kallikrein 7 (P49862 30-253): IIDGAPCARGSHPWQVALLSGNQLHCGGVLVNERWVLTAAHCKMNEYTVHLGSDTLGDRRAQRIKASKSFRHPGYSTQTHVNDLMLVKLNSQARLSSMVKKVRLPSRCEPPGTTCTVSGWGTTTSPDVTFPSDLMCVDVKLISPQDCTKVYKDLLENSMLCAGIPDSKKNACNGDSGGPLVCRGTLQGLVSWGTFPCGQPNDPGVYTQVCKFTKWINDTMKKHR

With `CCC(C)C1NC(=O)C(Cc2ccc(OCc3cc(C)n(C)n3)cc2)N(C)C(=O)C(C(C)CC)N2C(=O)C(CCC2O)NC(=O)C(CC(C)C)NC(=O)C(NC(=O)C(CCC(N)=O)NC(=O)C(C)C)C(C)OC1=O` (stereo not shown) [example 43], the IC50 in experiment [1] (Table 11, read-out: hKallikrein7 IC 50) is 0.2 nM; in experiment [2] (Table 11, read-out: human neutrophile elastase IC 50), 1 nM. For the same compound, the “% Inhibition of inflammatory swelling” value came to 42% in experiment [3] (Table 14, concentration of test compound 10 mM) and 55% in experiment [3] (Table 14, concentration of test compound 30 mM).

For `CC(C)CC(=O)N[C@@H](CCC(N)=O)C(=O)N[C@@H]1C(=O)N[C@@H](CC(C)C)C(=O)NC2CC[C@H](O)N(C2=O)[C@@H](Cc2ccccc2)C(=O)N(C)[C@@H](Cc2ccc(O)cc2)C(=O)N[C@@H](C(C)C)C(=O)O[C@@H]1C` (stereo partly shown) [formula VIII], the IC50 in experiment [4] is ~4 nM; in experiment [1] (read-out: IC50 for human kallikrein 7), < 3 nM; in experiment [2] (read-out: IC50 human neutrophile elastase), ~2.5 nM.
